Data from article PMC12724200 (mSphere, 2025).

Each molecule was assayed on M. bovis BCG.
Type: cell-based, Mycobacterium bovis BCG

SMILES	Frequency of spontaneously generated drug-resistant colonies
CC[C@@H](CO)NCCN[C@@H](CC)CO [EB, ethambutol]	4.5 × 10^−6
CO[C@H]1/C=C/O[C@@]2(C)Oc3c(C)c(O)c4c(O)c(c(/C=N/N5CCN(C)CC5)c(O)c4c3C2=O)NC(=O)/C(C)=C\C=C\[C@H](C)[C@H](O)[C@@H](C)[C@@H](O)[C@@H](C)[C@H](OC(C)=O)[C@@H]1C [RFP, rifampicin]	5.2 × 10^−9
NNC(=O)c1ccncc1 [INH, isoniazid]	2.0 × 10^−6
NC[C@H]1O[C@H](O[C@H]2[C@H](O)[C@@H](O[C@H]3O[C@H](CO)[C@@H](O)[C@H](N)[C@H]3O)[C@H](N)C[C@@H]2N)[C@H](O)[C@@H](O)[C@@H]1O [KM, kanamycin]	6.3 × 10^−6
[H]/N=C(/N)N[C@H]1[C@H](O)[C@@H](O)[C@H](O[C@@H]2O[C@@H](C)[C@](O)(C=O)[C@H]2O[C@@H]2O[C@@H](CO)[C@H](O)[C@@H](O)[C@@H]2NC)[C@@H](N/C(N)=N\[H])[C@@H]1O [SM, streptomycin]	3.1 × 10^−7
